Key:
[1] = tested on: Streptococcus; assay: Antibacterial effect (no effect, bacteriostatic, bactericidal); growth inhibition followed by biocidal plating; format: cell-based, Streptococcus pyogenes LMG 14237; settings: bactericidal = 3 LOG reduction compared to the inoculum
Protocol: (§1) The below table summarises the antibacterial effect (no effect, bacteriostatic, bactericidal) of the glycyrrhizic acid hydrogels on different pathogens tested.
The bactericidal effect of 0.5 mL/mL of 5 wt % hydrogel A (shown in grey bars with circles) is compared to growth medium with an adjusted pH (pH 5.2) that is associated with the acidifying effect of hydrogel A (shown in white bars with squares). ns: p>0.05, ****p<0.0001. […]
(§2) Three different formulations of the glycyrrhizic acid hydrogels were made in dH2O: (i) Hydrogel C with pH=3, (ii) Hydrogel B with pH=3.8 and (iii) Hydrogel A with pH=4.2. pH was measured at 70 °C and varied using HCl or NaOH to acidify or alkalify the formulation to the desired pH-value. […]
(§3) To avoid evaporation, the plates were sealed using a membrane (Greiner Bio-one NV). After 24 hours of incubation (37 °C, 200 rpm), the OD595 was measured and relative OD595 was calculated by dividing the OD595 by the average OD595 of the growth control (=growth of cells in MHB without glycyrrhizic acid). […]

[2] = tested on: Enterococcus; assay: as above; format: cell-based, Enterococcus faecalis LMG8148; settings: bactericidal = 3 LOG reduction compared to the inoculum
Protocol: as §1
The bactericidal effect of 0.5 mL/mL of 10 wt % hydrogel C (shown in grey bars with circles) is compared to growth medium with an adjusted pH (pH 4.6) that is associated with the acidifying effect of hydrogel C (shown in white bars with squares). ****p<0.0001. […]
as §2, §3

[3] = tested on: MRSA; assay: Growth inhibition evaluation (relative OD595); format: cell-based, methicillin resistant S. aureus (MRSA), clinical isolate; settings: 25 mg/mL glycyrrhizic acid in solution or 0.5 mL/mL of 5 wt % hydrogel, 24 h, 37 °C
Protocol: (§4) The growth inhibiting effect of 25 mg/mL glycyrrhizic acid in solution and 0.5 mL/mL of 5 wt % hydrogel A, corresponding with a total of 25 mg/mL of glycyrrhizic acid in the system are shown in grey bars with circles. Both are compared to suitable controls (shown in white bars with squares) i.e. growth media with an adjusted pH that is associated with the acidifying effect of glycyrrhizic acid in solution (pH 7.4) and hydrogel A (pH 5.2) but without the presence of glycyrrhizic acid in solution or hydrogel A, respectively. ns: p>0.05, *p<0.05, **p<0.01, ****p<0.0001. […]
as §2
(§5) To avoid evaporation, the plates were sealed using a membrane (Greiner Bio-one NV). After 24 hours of incubation (37 °C, 200 rpm), the OD595 was measured and relative OD595 was calculated by dividing the OD595 by the average OD595 of the growth control (=growth of cells in MHB without glycyrrhizic acid).

[4] = tested on: Staphylococcus epidermidis; assay: Growth inhibition evaluation (relative OD595); format: cell-based, clinical isolate; settings: 25 mg/mL glycyrrhizic acid in solution or 0.5 mL/mL of 5 wt % hydrogel, 24 h, 37 °C
Protocol: as §4, §2, §5

[5] = tested on: Acinetobacter baumanni; assay: Growth inhibition evaluation (relative OD595); format: cell-based, Acinetobacter baumannii RD5SR3; settings: 25 mg/mL glycyrrhizic acid in solution or 0.5 mL/mL of 5 wt % hydrogel, 24 h, 37 °C
Protocol: as §4, §2, §5

[6] = tested on: Pseudomonas aeruginosa; assay: Growth inhibition evaluation (relative OD595); format: cell-based, Pseudomonas aeruginosa LMG9009; settings: 25 mg/mL glycyrrhizic acid in solution or 0.5 mL/mL of 5 wt % hydrogel, 24 h, 37 °C
Protocol: as §4, with “B,” for “A,”, “B” for “A”, “5)” for “5.2)”, “p>0.05,” for “p>0.05, *p<0.05, **p<0.01,”
as §2, §5

[7] = tested on: Escherichia coli; assay: Growth inhibition evaluation (relative OD595); format: cell-based, Escherichia coli UTI89; settings: 50 mg/mL glycyrrhizic acid in solution or 0.5 mL/mL of 10 wt % hydrogel, 24 h, 37 °C
Protocol: as §4, with “of 50” for “of 25”, “of 10” for “of 5”, “hydrogel C,” for “hydrogel A,”, “hydrogel C” for “hydrogel A”, “(pH 4.6)” for “(pH 5.2)”, “p>0.05,” for “p>0.05, *p<0.05, **p<0.01,”
as §2, §5

[8] = tested on: Klebsiella pneumoniae; assay: Growth inhibition evaluation (relative OD595); format: cell-based, Klebsiella pneumoniae ATCC13883; settings: 50 mg/mL glycyrrhizic acid in solution or 0.5 mL/mL of 10 wt % hydrogel, 24 h, 37 °C
Protocol: as §4, with “of 50” for “of 25”, “of 10” for “of 5”, “hydrogel C,” for “hydrogel A,”, “hydrogel C” for “hydrogel A”, “(pH 4.6)” for “(pH 5.2)”, “p>0.05,” for “p>0.05, *p<0.05, **p<0.01,”
as §2, §5

[9] = tested on: Klebsiella aerogenes; assay: Growth inhibition evaluation (relative OD595); format: cell-based, Klebsiella aerogenes ATCC13048; settings: 50 mg/mL glycyrrhizic acid in solution or 0.5 mL/mL of 10 wt % hydrogel, 24 h, 37 °C
Protocol: as §4, with “of 50” for “of 25”, “of 10” for “of 5”, “hydrogel C,” for “hydrogel A,”, “hydrogel C” for “hydrogel A”, “(pH 4.6)” for “(pH 5.2)”, “p>0.05,” for “p>0.05, *p<0.05, **p<0.01,”
as §2, §5

[10] = tested on: S. pyogenes; assay: Growth inhibition evaluation (relative OD595); format: cell-based, Streptococcus pyogenes LMG 14237
Protocol: The glycyrrhizic acid concentration is calculated based on the percentage of glycyrrhizic acid in the gel and the amount of this gel used in the assay. Note that the pH at the gel surface is lower than the initial pH of the growth medium on top of the gel due to the acidifying effect of the hydrogel. This pH difference is dependent of the pH of the hydrogel, the percentage of glycyrrhizic acid in the hydrogel and the amount of hydrogel used. The different hydrogels are indicated by color: white circles represent the hydrogel A, grey circles represent hydrogel B and black circles represent the hydrogel C. The 2 grey dots at pH 7.0 in the plot represent the (lack of) activity of glycyrrhizic acid in solution. Of all nine pathogens tested, only Streptococcus pyogenes was inhibited by 50 mg/mL glycyrrhizic acid in solution.
The growth inhibiting effect of 25 mg/mL glycyrrhizic acid in solution and 0.5 mL/mL of 5 wt % hydrogel A, corresponding with a total of 25 mg/mL of glycyrrhizic acid in the system are shown in grey bars with circles. […]
as §2

[11] = tested on: E. faecalis; assay: Growth inhibition evaluation (relative OD595); format: cell-based, Enterococcus faecalis LMG8148; settings: 25 mg/mL glycyrrhizic acid in solution or 0.5 mL/mL of 5 wt % hydrogel, 24 h, 37 °C
Protocol: as §4, §2, §5

[12] = tested on: Escherichia coli; settings: cited from earlier work
[13] = tested on: Proteus vulgaris; settings: cited from earlier work
[14] = tested on: Candida albicans; settings: cited from earlier work
[15] = tested on: Streptococci; settings: cited from earlier work

CC1(C)[C@@H](O[C@H]2O[C@H](C(=O)O)[C@@H](O)[C@H](O)[C@H]2O[C@@H]2O[C@H](C(=O)O)[C@@H](O)[C@H](O)[C@H]2O)CC[C@]2(C)[C@H]3C(=O)C=C4[C@@H]5C[C@@](C)(C(=O)O)CC[C@]5(C)CC[C@@]4(C)[C@]3(C)CC[C@@H]12 [glycyrrhizic acid]
antibacterial effect (no effect, bacteriostatic, bactericidal) [1]: Bacterio- | antibacterial effect (no effect, bacteriostatic, bactericidal) [2]: No effect | growth inhibiting activity [3]: lack of/limited growth inhibiting activity | growth inhibiting activity [4]: lack of/limited growth inhibiting activity | growth inhibiting activity [5]: lack of/limited growth inhibiting activity | growth inhibiting activity [6]: lack of/limited growth inhibiting activity | growth inhibiting activity [7]: lack of/limited growth inhibiting activity | growth inhibiting activity [8]: lack of/limited growth inhibiting activity | growth inhibiting activity [9]: lack of/limited growth inhibiting activity | complete growth inhibition (FIG. 1) ([10]; 50 mg/mL glycyrrhizic acid in solution, only Streptococcus pyogenes of nine pathogens): inhibited | growth inhibiting activity ([10]; S. pyogenes, 25 mg/mL glycyrrhizic acid in solution or 0.5 mL/mL of 5 wt % hydrogel, 24 h, 37 °C): lack of/limited growth inhibiting activity | growth inhibiting activity [11]: lack of/limited growth inhibiting activity | antibacterial potential in solution [12]: lack of activity | antibacterial potential in solution [13]: lack of activity | antibacterial potential in solution [14]: lack of activity | antibacterial potential in solution [15]: lack of activity
